Data: publication PMC5100903, “Tissue Kallikrein Inhibitors Based on the Sunflower Trypsin Inhibitor Scaffold – A Potential Therapeutic Intervention for Skin Diseases” (PLoS ONE, 2016)
“Also recorded” adds a separate entry of the source. Read-outs that look alike come from different tables or passages of the source. Positions of bridges follow the written chain, without caps; N, C: chain ends. Residues, ends and D or L forms follow the SMILES beside them.

What was measured:
KLK14 = target: T1, KLK14 (Homo sapiens, UniProt Q9P0G3); test: biochemical; assay type: biochemical
T1 construct: purchased R&D
T1 sequence (Q9P0G3 25-251): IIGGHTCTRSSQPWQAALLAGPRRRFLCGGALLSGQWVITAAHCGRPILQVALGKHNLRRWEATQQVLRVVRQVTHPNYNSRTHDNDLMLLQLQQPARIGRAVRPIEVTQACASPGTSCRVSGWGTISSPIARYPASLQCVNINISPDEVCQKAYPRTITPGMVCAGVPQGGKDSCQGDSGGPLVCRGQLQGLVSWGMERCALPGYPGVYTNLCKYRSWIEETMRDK
Procedure: (§1) All assays were performed on 96-well microplates and the change in relative fluorescence unit (RFU) was measured by fluorescence spectrometer (BMG FLUOstar OPTIMA). […] Stock solution of Boc-VPR-AMC was prepared by dissolving the solid in dimethyl sulfoxide to 100 mM and 10 mM for MeOSuc-AAPV. For BODIPY_FL casein, it was reconstituted to 1 mg/mL in 1xPBS. […] The % of inhibition was calculated by the following equation: % of Inhibition=(1−(Sample RFU − Min RFU)/(Max RFU − Min RFU)) X100
(§2) Each inhibition curves were done in triplicates with a minimum of five concentration points fitted. Fitting of each curve was done using SigmaPlot with the Four Parameter Logistic Function and the IC50 calculated. […] All tested compounds were reconstituted to stock solution in water.
KLK7 and KLK14 were activated by addition of 1 mM f/c CaCl2 (Sigma, Dorset, U.K.), 0.05% v/v Brij35 (Sigma, Dorset, U.K.), 20 nM f/c thermolysin (Sigma, Dorset, U.K.) and incubated at 37°C for 1 hour. The reaction was stopped by addition of ethylenediaminetetraacetic acid (EDTA, 50 mM f/c). […] The RFU value reached by the thermolysin control was used as the minimum RFU for calculating the % of inhibition for KLK7.
The diluent for all the tested compounds, protein and substrate (except KLK7, which was done with 10 mM Tris pH 7.8) was 1xPBS pH 8.0–8.9. […] 20μL of the ligand-protein mixture was pipetted to a well of a 96-well microplate in triplicates. The reaction was started by addition of 90–100 μL of the diluted substrate solution (contained 0.05% v/v Brij35) and the plate incubated at 25°C but 37°C for KLK7. RFU reading for each well was taken 6 minutes (trypsin) or 15 minutes (KLK14, KLK5, KLK8, matriptase, human neutrophil elastase, porcine pancreatic elastase 1, plasma kallikrein and plasmin) or 20 hours (KLK7) after substrate addition.

N-tert skin cells = test: KLK5-induced IL-8 secretion, ELISA; assay type: cell-based, human; details: KLK5 300 nM, Analogue 6 1515 nM (molar excess 5:1), N-tert cells, 6, 24 and 48 hours
KLK5 [1] = target: T2, KLK5 (Homo sapiens, UniProt Q9Y337); test: biochemical
T2 construct: purchased Novoprotein
T2 sequence (Q9Y337 23-293): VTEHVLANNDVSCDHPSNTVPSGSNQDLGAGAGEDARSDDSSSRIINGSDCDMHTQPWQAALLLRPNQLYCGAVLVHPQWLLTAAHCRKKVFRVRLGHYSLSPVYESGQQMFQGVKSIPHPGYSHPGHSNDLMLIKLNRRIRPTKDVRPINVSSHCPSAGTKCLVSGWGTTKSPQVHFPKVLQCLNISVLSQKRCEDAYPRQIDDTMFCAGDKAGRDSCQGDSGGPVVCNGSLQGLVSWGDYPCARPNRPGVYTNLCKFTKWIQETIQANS
Procedure: All assays were performed on 96-well microplates and the change in relative fluorescence unit (RFU) was measured by fluorescence spectrometer (BMG FLUOstar OPTIMA). The excitation/emission wavelength was 360/460 nm for the substrate Boc-VPR-AMC (Bachem AG, Hauptstrasse, Switzerland) and MeOSuc-AAPV-AMC (Bachem AG, Hauptstrasse, Switzerland) and 485/520 nm for BODIPY_FL casein (Invitrogen, Carlsbad, US). Stock solution of Boc-VPR-AMC was prepared by dissolving the solid in dimethyl sulfoxide to 100 mM and 10 mM for MeOSuc-AAPV. For BODIPY_FL casein, it was reconstituted to 1 mg/mL in 1xPBS. […] The % of inhibition was calculated by the following equation: % of Inhibition=(1−(Sample RFU − Min RFU)/(Max RFU − Min RFU)) X100
as §2
The diluent for all the tested compounds, protein and substrate (except KLK7, which was done with 10 mM Tris pH 7.8) was 1xPBS pH 8.0–8.9. The serially diluted ligands were mixed with diluted bovine trypsin (Sigma, Dorset, U.K.) or activated KLK14, or KLK5, or activated KLK8 or matriptase (catalytic domain only, >90% purity by SDS-PAGE, endotoxin <0.1 ng/μg, R&D, Minneapolis, U.S.) or activated KLK7 or human neutrophil elastase (purified from human plasma, >95% purity by SDS-PAGE, Abcam, Cambridge, U.K.) or porcine pancreatic elastase 1 (Sigma, Dorset, U.K.) or human plasma kallikrein or human plasma plasmin (purified from human plasma, ≥95% purity by SDS-PAGE, BioVision, Milpitas, U.S.). 20μL of the ligand-protein mixture was pipetted to a well of a 96-well microplate in triplicates. The reaction was started by addition of 90–100 μL of the diluted substrate solution (contained 0.05% v/v Brij35) and the plate incubated at 25°C but 37°C for KLK7. RFU reading for each well was taken 6 minutes (trypsin) or 15 minutes (KLK14, KLK5, KLK8, matriptase, human neutrophil elastase, porcine pancreatic elastase 1, plasma kallikrein and plasmin) or 20 hours (KLK7) after substrate addition.
There are two previously reported Km values for KLK5 and its substrate Boc-VPR-AMC which allowed the IC50 to Ki conversion. Ki values were calculated according to the Cheng-Prusoff equation Ki= IC50/1+[S]/Km for single site competitive binding.

KLK5 [2] = target: T2, KLK5; test: KLK5 inhibition, fluorogenic Boc-VPR-AMC assay (S1 Table conditions); assay type: biochemical; details: KLK5 10 nM, Boc-VPR-AMC 41.6 μM, 1xPBS pH 8.0, 15 min on ice preincubation, read at 15 min, 25°C
Procedure: as §1, §2
The diluent for all the tested compounds, protein and substrate was 1xPBS pH 8.0. Zinc sulfate and p-aminobenzamidine were purchased from Sigma (Dorset, U.K.). […] The ligand-protein mixtures were incubated on ice for 15 minutes and 20 μL was transferred to a well of a 96-well microplate (ThermoScientific, Waltham, U.S.) in triplicate. […] Change in RFU was measured 15 minutes after substrate addition at 25°C.

[3] = calculated from Table 3 IC50 by Cheng-Prusoff equation, read-out: Ki, KLK5 (converted)
[4] = enzyme 10 nM, Boc-VPR-AMC 42 μM, 1xPBS pH 8.0–8.9, 25°C, 15 minutes

`CC[C@H](C)[C@@H]1NC(=O)[C@H](CO)NC(=O)[C@H](CCCCN)NC(=O)[C@H]([C@@H](C)O)NC(=O)[C@@H]2CSSC[C@H](NC(=O)[C@H](Cc3c[nH]cn3)NC(=O)[C@@H]3CCCN3C(=O)[C@@H]3CCCN3C1=O)C(=O)N[C@@H](Cc1c[nH]c3ccccc13)C(=O)N1CCC[C@H]1C(=O)N[C@@H](CC(=O)O)C(=O)NCC(=O)N[C@@H](CCCNC(=N)N)C(=O)N2` [Analogue 2] (cyclo(CTKSIPPHCWPDGR); disulfide 1-9) was tested. Which IC50 (KLK14) did it give?
The IC50 was 85 ± 6 nM.

`CC[C@H](C)[C@@H]1NC(=O)[C@H](CO)NC(=O)[C@H](CCCNC(=N)N)NC(=O)[C@H]([C@@H](C)O)NC(=O)[C@@H]2CSSC[C@H](NC(=O)[C@H](Cc3c[nH]cn3)NC(=O)[C@@H]3CCCN3C(=O)[C@@H]3CCCN3C1=O)C(=O)N[C@@H](Cc1c[nH]c3ccccc13)C(=O)N1CCC[C@H]1C(=O)N[C@@H](CC(=O)O)C(=O)NCC(=O)N[C@@H](CCCNC(=N)N)C(=O)N2` [Analogue 6] (cyclo(CTRSIPPHCWPDGR); disulfide 1-9) was tested. Which IC50 (KLK14) did it give?
Its IC50 is 24 ± 2 nM.

What about the “suppression of KLK5-induced IL-8 increase” value (N-tert skin cells) of the same compound?
Its value is “suppress IL-8 increase up to 6 hours (p<0.05) but not 24 hours after stimulation; also recorded: delay the KLK5-induced IL-8 release by up to 6 hours but not for 24 hours”.

And the IC50 (KLK5 [1])?
The IC50 was 56 ± 0.5 nM.

And the Ki (KLK5 [1])?
Its Ki is 51 nM.

What does the source list for `CC[C@H](C)[C@@H]1NC(=O)[C@H](CO)NC(=O)[C@H](CCCCN)NC(=O)[C@H]([C@@H](C)O)NC(=O)[C@@H]2CSSC[C@H](NC(=O)[C@H](Cc3c[nH]cn3)NC(=O)[C@@H]3CCCN3C(=O)[C@@H]3CCCN3C1=O)C(=O)N[C@@H](Cc1ccccc1)C(=O)N1CCC[C@H]1C(=O)N[C@@H](CC(=O)O)C(=O)NCC(=O)N[C@@H](CCCNC(=N)N)C(=O)N2` [Analogue I10H] (cyclo(CFPDGRCTKSIPPH); disulfide 1-7)?
IC50 (KLK14; enzyme 10 nM, Boc-VPR-AMC 45 μM, 25°C, 15 minutes): 470 ± 47 nM; fold potency drop on KLK14 compared to native SFTI (KLK14; from Table 3 IC50): ~20 fold; Ki (KLK5 [1]; [3]): 478 nM; IC50 (KLK5 [1]; [4]): 523 ± 11 nM; IC50 (KLK5 [2]): 760 nM

`CC[C@H](C)[C@@H]1NC(=O)[C@@H]2CCCN2C(=O)[C@@H]2CCCN2C(=O)[C@H]([C@@H](C)CC)NC(=O)[C@H](CO)NC(=O)[C@H](CCCCN)NC(=O)[C@H]([C@@H](C)O)NC(=O)[C@@H]2CSSC[C@H](NC1=O)C(=O)N[C@@H](Cc1ccccc1)C(=O)N1CCC[C@H]1C(=O)N[C@@H](CC(=O)O)C(=O)NCC(=O)N[C@@H](CCCNC(=N)N)C(=O)N2` [Native SFTI, Sunflower Trypsin Inhibitor 1, reference compound] was tested. Which Ki (KLK5 [1]; [3]) did it give?
Its Ki is 210 nM.

And the IC50 (KLK5 [1]; [4])?
The IC50 was 230 ± 3 nM.

What about the IC50 (KLK5 [2]) of the same compound?
The IC50 was 300 nM.
